Structures are written as SMILES. Active and inactive are the calls of the source. The calls are words filed in the database; no cut-off is given here.

Data set [1] deals with Rattus norvegicus. Nature of the data set: Reduction in ADAMTS-4/ADAMTS-5 mediated aggrecan cleavage products in Lewis rat model of MIA assessed as aggrecanase-cleaved fragments at 30 mg/kg, po qd administered post 3 days MIA induction measured after 4 hrs of last dosage on day 7 by NITEGE sandwich ELISA. It is filed as functional.
The test system of data set [2] is Rattus norvegicus. Put plainly: Reduction in ADAMTS-4/ADAMTS-5 mediated aggrecan cleavage products in Lewis rat model of MIA assessed as aggrecanase-cleaved fragments at 30 mg/kg, po bid administered post 3 days MIA induction measured after 4 hrs of last dosage on day 7 by NITEGE sandwich ELISA. Format: functional.
Data set [3] is described as follows: Cmax in Lewis rat plasma at 10 mg/kg, po. It is filed as ADME, organism-based. Set-up: dose 10 mg/kg, route oral.
Data set [4] is described as follows: Plasma concentration in Lewis rat model of MIA at 10 mg/kg, po bid administered post 3 days MIA induction measured after 4 hrs of last dosage on day 7. It is filed as ADME, organism-based.
Data set [5] is described as follows: Plasma concentration in Lewis rat model of MIA at 30 mg/kg, po bid administered post 3 days MIA induction measured after 4 hrs of last dosage on day 7. Format: ADME, organism-based.
Data set [6] in a line: AUC in Lewis rat at 10 mg/kg, po. The conditions noted are these: in vivo. It is filed as ADME, organism-based.
Data set [7] in a line: Plasma concentration in Lewis rat at 10 mg/kg, po bid measured after 8 hrs. It is filed as ADME, organism-based.

Take `C[C@@]1(O)CCCN(S(=O)(=O)c2ccc(OCc3ccc(F)cc3Cl)cc2)[C@H]1C(=O)NO`: the inhibition entry with Rattus norvegicus [1] and with Rattus norvegicus [2] was “inactive” in each case.

`O=C1NC(=O)[C@](CNC(=O)c2cc3cc(Cl)ccc3o2)(c2nccs2)N1` registered a Cmax in data set [3] of 33 µM. In addition, the concentration at 4 h in data set [4] came out at 30 µM; in data set [5], 90 µM. Further, the AUC in data set [6] came to 130 µM·h. The concentration at 8 h in data set [7] was 2.2 µM.
